What is called IC50 is the concentration needed to halve the response being measured. The inhibition is the change of the read-out against control, counted positive when it falls.

Consider eight compounds from publication PMC9827882, “Templated Generation of a Bcl‐xL Inhibitor by Isomer‐Free SPAAC Based on Azacyclonon‐5‐yne” (Chemistry (Weinheim an Der Bergstrasse, Germany), 2022).

Data set [1] has as its target T1, Bcl‐xL (Homo sapiens, UniProt Q07817, DEL45-84).
T1 construct: The protein Bcl‐xL (amino acids 1‐209, Δ45–84, kindly provided by Prof. Ho Sup Yoon); gift of Prof; Ho Sup Yoon, Nanyang Technological University, Singapore
Briefly: Competitive fluorescence polarization (FP) binding assay: Bcl‐xL and fluorescein‐labeled Bak BH3‐derived peptide. The following applies: for IC50: Bcl‐xL 37 nM, Bak BH3 peptide 4 nM, triplicate, read-out: IC50 against Bcl‐xL in FP assay. As to the method: The abilities of triazoles 11 a/c to interfere with binding between Bcl‐xL and a fluorescein‐labeled peptide derived from the pro‐apoptotic Bcl‐2 protein Bak was analyzed in a competitive binding assay based on fluorescence polarization (FP).[9, 20]
Fluorescence polarization assays: Assays were performed essentially as described previously.[20, 30] The protein Bcl‐xL (amino acids 1‐209, Δ45–84, kindly provided by Prof. Ho Sup Yoon, Nanyang Technological University, Singapore)[31] was incubated with the test compounds for 1 h at room temperature at a protein concentration of 37 nM. Subsequently, fluorophore‐labeled Bak BH3‐derived peptide (5‐carboxyfluorescein‐[…]‐NH2 was added (final peptide concentration: 4 nM), and the fluorescence polarization was measured after another 60 min in a plate reader (Tecan Infinite F500). All experiments were carried out in triplicate. Buffer composition: 10 mM Tris pH 8.0, 50 mM NaCl, 1 mM EDTA, 0.1 % Nonidet P‐40 substitute, 1 mM DTT, and 2 % DMSO.
On the technique in general: Polarisation of emitted light reports the rotation of a fluorescent probe.

On the set-up of data set [2]: method as in PMID 18451170. The note with it: cited from earlier work.
Details of data set [3]: method as in PMID 18451170. The following applies: cited from earlier work. The source holds these as a separate data set.
The target in data set [4] is T1, Bcl‐xL. Briefly: Kinetic analysis by HPLC of the reaction between 12 d and 13 to generate 11 d in aqueous buffer, templated by Bcl‐xL. The note with it: for second‐order rate constant k of formation of 11 d from 12 d and 13: 12 d and 13 both 50 μM; for second‐order rate constant k of formation of 11 d from 12 d and 13 / rate acceleration over the reaction of 1 and benzyl azide in acetonitrile at room temperature: aqueous buffer, 37 °C. As to the method:
While the reactivities of cycloalkynes are typically characterized by their second‐order rate constants in the reaction with benzylazide in CD3CN, or sometimes CD3OD, the relevant reactivity of a cycloalkyne for use in iSPAAC is the reactivity between the functionalized cycloalkyne and the functionalized azide in aqueous media at the physiological temperature of 37 °C. We therefore analyzed the kinetics of the reaction between the functionalized cycloalkyne 12 d and the azide 13 in aqueous buffer by reversed‐phase (RP)‐HPLC. Incubation of 12 d and 13 (both at 50 μM) at 37 °C generated the triazole 11 d with a second‐order rate constant of 2.1±0.2×10^−3 M^−1 s^−1 (Figures 7 and S6). This represents a 450‐fold rate acceleration over the reaction of 1 and benzyl azide in acetonitrile at room temperature (k=4.7±0.1×10^−6 M^−1 s^−1). In the presence of an additional, equimolar amount of Bcl‐xL, this rate was further increased by a factor of 6 (k=1.33±0.06×10^−2 M^−1 s^−1), representing a 2800‐fold higher rate constant than observed in the standard reaction between 1 and benzyl azide in acetonitrile at room temperature. […] Of particular relevance in this context are the templated synthesis of sulfonamide‐based Bcl‐xL inhibitors using sulfonyl azides and thioacids,[23] and protein‐templated formation of 1,2,3‐triazoles from azides and terminal alkynes in the absence of Cu^I.[24]
Kinetic analysis by HPLC: 12 d (50 μM) and 13 (50 μM) were incubated at 37 °C in the absence of Bcl‐xL, in the presence of Bcl‐xL (50 μM), and in the presence of both Bcl‐xL (50 μM) and ABT‐737 (50 μM). At the given time points, aliquots of 60 μL were diluted with 60 μL of 0.1 % TFA in 4.5 % acetonitrile/H2O and analyzed by RP‐HPLC (100 μL injection volume). The formation of 11 d was quantified by peak area using a standard curve. 1/(50×10^−6−[11 d]) [M^−1] was plotted against time. Linear regression gave the second‐order rate constant k as the slope. Experiments were carried out in triplicate. Buffer composition: 10 mM Tris pH 8.0, 50 mM NaCl, 1 mM EDTA, 0.1 % Nonidet P‐40 substitute, and 4 % DMSO.

T1 sequence (Q07817 with tags, fused parts or gaps DEL45-84): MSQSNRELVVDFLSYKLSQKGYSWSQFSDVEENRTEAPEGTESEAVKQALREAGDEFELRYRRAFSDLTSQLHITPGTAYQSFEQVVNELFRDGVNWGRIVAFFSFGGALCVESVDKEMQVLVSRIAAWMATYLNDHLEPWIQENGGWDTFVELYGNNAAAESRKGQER

`O=C(OCc1ccccc1-c1ccc(Cl)cc1)N1CCCC#CCCC1` [12 c]: the “activity against Bcl‐xL in FP assay (in words)” value (from here on “activity against Bcl‐xL”) at Bcl‐xL [1] (100 μM, FP assay) was “inactive”; on Bcl‐xL [1] (100 μM, FP assay, listed as 12c), “no inhibition”.

Take `CN(C)CC[C@H](CSc1ccccc1)Nc1ccc(S(=O)(=O)NC(=O)Cn2nnc3c2CCCN(C(=O)c2ccccc2-c2ccc(Cl)cc2)CCC3)cc1[N+](=O)[O-]` [11 a]: the half-inhibitory concentration (IC50) at Bcl‐xL [1] was 18 ± 0.7 µM.

`O=C(c1ccccc1-c1ccc(Cl)cc1)N1CCCC#CCCC1` [12 a]: the “activity against Bcl‐xL” value at Bcl‐xL [1] (100 μM, FP assay) was “inactive”; at Bcl‐xL [1] (100 μM, FP assay, listed as 12a) it was “no inhibition”.

In the case of `CN(C)CC[C@H](CSc1ccccc1)Nc1ccc(S(=O)(=O)NC(=O)Cn2nnc3c2CCCN(C(=O)OCc2ccccc2-c2ccc(Cl)cc2)CCC3)cc1[N+](=O)[O-]` [11 c], the IC50 at Bcl‐xL [1] was 11.4 ± 0.9 µM.

In the case of `CN(C)CC[C@H](CSc1ccccc1)Nc1ccc(S(=O)(=O)NC(=O)CN=[N+]=[N-])cc1[N+](=O)[O-]` [compound 13], the inhibition at 100 µM at Bcl‐xL [1] (100 μM, FP assay) was found to be 48 ± 3%.

Turning to `O=C(OCC1=C(c2ccc(Cl)cc2)CCNC1)N1CCCC#CCCC1` [12 d], the “activity against Bcl‐xL” value was “inactive” at Bcl‐xL [1] (100 μM, FP assay) and “no inhibition” on Bcl‐xL [1] (100 μM, FP assay, listed as 12d).

Turning to `CN(C)CC[C@H](CSc1ccccc1)Nc1ccc(S(=O)(=O)NC(=O)c2ccc(N3CCN(Cc4ccccc4-c4ccc(Cl)cc4)CC3)cc2)cc1[N+](=O)[O-]` [ABT‐737], the “cell permeability in tissue culture” value in data set [2] is recorded as “cell‐permeable”. In addition, the oral bioavailability result in data set [3] was “poor”.

For `CN(C)CC[C@H](CSc1ccccc1)Nc1ccc(S(=O)(=O)NC(=O)Cn2nnc3c2CCCN(C(=O)OCC2=C(c4ccc(Cl)cc4)CCNC2)CCC3)cc1[N+](=O)[O-]` [11 d], the “second‐order rate constant k of formation of 11 d from 12 d and 13” value on Bcl‐xL [4] (equimolar Bcl‐xL (50 μM)) was 1.33±0.06×10^−2 M^−1 s^−1; at Bcl‐xL [4] (no Bcl‐xL, RP‐HPLC), 2.1±0.2×10^−3 M^−1 s^−1. The “rate acceleration over the reaction of 1 and benzyl azide in acetonitrile at room temperature” value is on record as 450 fold on Bcl‐xL [4] (no Bcl‐xL) and 2800 fold on Bcl‐xL [4] (with equimolar Bcl‐xL). The “rate increase by Bcl‐xL (template effect)” value on Bcl‐xL [4] (with equimolar Bcl‐xL vs without Bcl‐xL) is 6 factor. For the same compound, the IC50 on Bcl‐xL [1] is 2.42 ± 0.02 µM. Further, the “almost 5-fold higher inhibitory potency of 11 d than 11 c” value at Bcl‐xL [1] (ratio of IC50 values, 11 d vs 11 c) is given as approximately 5 fold.
